Assay results taken from US20030040114A1, “SMALL MOLECULE MODULATION OF RIBOZYMES” (Warner-Lambert Company,, priority 1996, published 2003).
Starred links: 1 amine or outer side, 2 acyl side, 3 side chain; linkers in the order of their positions; H or OH if unused. Positions of bridges follow the written chain, without caps; N, C: chain ends. Non-standard residues stand in square brackets, D forms with d. Residues, ends and D or L forms follow the SMILES beside them. *: point of attachment. X1 = NC1=N[C@@H]([C@H](N[*:1])C(=O)[*:2])C[C@H](O)N1; ΔAla(Z-3-ureido) = NC(=O)N/C=C(\N)C(=O)O; β3hOrn = NCCC[C@H](N)CC(=O)*; Dap = NC[C@H](N)C(=O)O

Tests used:
[1] = tested on: self-splicing Pneumocystis carinii Group I intron RNA; experiment: Filtration assay for self-splicing Group I intron (96-well, 32P-GTP incorporation, TCA precipitation); type: biochemical; settings: single concentration 20 μM; four repeats; FIG. 6
Procedure: A high-throughput screening assay for self-splicing Group I introns using 96-well format filter plates is disclosed. Nonradioactive, intron-containing precursor RNA is incubated with α-^32P-labeled GTP in the absence or presence of small molecules. During the first step of Group I intron splicing, ^32P-GTP is covalently ligated to the 5′ terminus of the intron. Subsequently, the intron-containing products of both the first (439-nt RNA) and the second (390-nt RNA) steps are radioactively labeled at the 5′-end with ^32P isotopes. Free ^32P-GTP and the longer ^32P-labeled (acid-precipitable) RNA products can be readily separated through trichloroacetic acid precipitation and subsequent filtration through nitrocellulose membrane. The efficiency of inhibition can be followed by measuring the amount of the radioactivity retained on the filter membrane. In the control experiment, the spliced products containing 5′-^32P GMP will retain on the membrane. If the first step (5′-cleavage) is inhibited by a small molecule, incorporation of ^32P-GTP to the precursor RNA will be inhibited and, therefore, a decreased amount of radioactivity will be found on the membrane.
In each well of a 96-well U-bottom microtiter plate, 32 μL of precursor RNA (in self-splicing buffer 50 mM Tris-HCl, pH 7.5, 10 mM (NH4)2SO4, 10 mM MgCl2, 5 mM spermidine, and 5% glycerol) was added with 2 μL of a small organic compound in dimethylsulfoxide (DMSO) and the mixture incubated at room temperature for 5 minutes. […] The filter was allowed to dry and the retained radioactivities were determined using scintillation counting (Wallac Microbeta Counter). […]
Column 1 represents the results of eight repeats of the self-splicing reactions in the absence of any inhibitors while Column 12 represents the data of eight repeats of solution containing ^32P-GTP only. […] The results of a total of 18 plates (a total of 1,440 samples) have been analyzed and the statistical distribution of the inhibitory activities is shown in FIG. 4. […]

[2] = tested on: self-splicing Pneumocystis carinii Group I intron RNA; experiment: Multiple-loading gel electrophoresis assay for self-splicing Group I intron; type: biochemical; settings: single concentration 20 μM; four repeats; FIG. 6
Procedure: As another example of a separation method useful in the present invention, a high-throughput gel electrophoresis assay with multiple loading capability is used in studies of self-splicing Group I introns. To be specific, the reaction sample, prepared similarly as described in the filtration assay, was loaded on a denaturing polyacrylamide gel (7 M urea, 6% polyacrylamide) and electrophoresed for 1 hour at room temperature. Due to their lengths, the ^32P-labeled products of the self-splicing introns can be readily distinguished from the ^32P-GTP on a polyacrylamide gel. On a single polyacrylamide gel, usually three or four repetitive loadings of different samples into the same wells at discrete times present no interference between samples. […] After a total of 3 hours of electrophoresis, the desired products are well-resolved in all samples regardless of the time of loading.
Each sample contains the same self-splicing reaction solution as described in the previous section (32 μL of precursor RNA in self-splicing buffer, 2 μL of DMSO or compound, and 6 μL solution of α-^32P-GTP). As described previously, the products of the self-splicing reactions are 5′-end labeled intron-containing 439-nt RNA (from the first step) and 390-nt RNA (from the second step). These large RNA fragments can be readily separated from the starting material, ^32P-GTP. After splicing reactions, a total of 20 samples were loaded on a polyacrylamide gel three times (first loading at time 0, then two more loadings at 1, and 2 hours after the first loading, respectively). […] In this gel electrophoresis assay, for the purpose of quantitation of reaction yields, appropriate ^32P-labeled RNA fragments can be introduced to each sample as an internal standard immediately prior to loading. The gels containing self-splicing products and internal standards separated according to their different mobilities can be dried and quantitated by a phosphor imager (Phosphoimager, Molecular Dynamics). […]

Row | SMILES | Self-splicing inhibitory effect, filtration assay [1] | Self-splicing inhibitory effect, gel electrophoresis assay [2]
1 | NCCC[C@H](N)CC(=O)N[C@H]1CNC(=O)[C@H]([C@H]2C[C@H](O)NC(N)=N2)NC(=O)/C(=C/NC(N)=O)NC(=O)[C@H](CO)NC(=O)[C@H](CO)NC1=O [viomycin, Viomycin] (β3hOrn-[Dap]SS[ΔAla(Z-3-ureido)][X1]; lactam 1-C) | either low or modest activity | either low or modest activity
2 | [H]/N=C(/N)N[C@H]1[C@H](O)[C@@H](O)[C@H](O[C@@H]2O[C@@H](C)[C@](O)(C=O)[C@H]2O[C@@H]2O[C@@H](CO)[C@H](O)[C@@H](O)[C@@H]2NC)[C@@H](N/C(N)=N\[H])[C@@H]1O [streptomycin] | either low or modest activity | either low or modest activity
3 | N=C(N)c1ccc(OCCCCCOc2ccc(C(=N)N)cc2)cc1 [pentamidine] | either low or modest activity | either low or modest activity
